Some targets named below: AURKB (Homo sapiens, UniProt Q96GD4); TNK1 (Homo sapiens, UniProt Q13470); NEK4 (Homo sapiens, UniProt P51957); CAMK2D (Homo sapiens, UniProt Q13557); WNK4 (Homo sapiens, UniProt Q96J92); ALK (Homo sapiens, UniProt Q9UM73); DAPK3 (Homo sapiens, UniProt O43293); PRKG2 (Homo sapiens, UniProt Q13237); FLT3 (Homo sapiens, UniProt P36888); EPHB4 (Homo sapiens, UniProt P54760); EPHA5 (Homo sapiens, UniProt P54756); LRRK2 (Homo sapiens, UniProt Q5S007); TAOK2 (Homo sapiens, UniProt Q9UL54); FGFR3 (Homo sapiens, UniProt P22607); PIM1 (Homo sapiens, UniProt P11309).

What all share (assay): biochemical
What all share (parameters): KINOMEscan active-site-directed competition binding panel, 468 kinases, percent of DMSO control at 1 uM
What all share (conditions): KINOMEscan binding, percent of DMSO control; read-out: Ctrl%

The target in the next test is T1, YANK3 (Homo sapiens, UniProt Q86UX6).
T1 construct: gene STK32C

Another test deals with T2, MLK2 (Homo sapiens, UniProt Q02779).
T2 construct: gene MAP3K10

A further test deals with T3, PIP5K2B (Homo sapiens, UniProt P78356).
T3 construct: gene PIP4K2B

The next test concerns the target T4, TRKB (Homo sapiens, UniProt Q16620).
T4 construct: gene NTRK2

The target in test [1] is T5, RSK3(Kin.Dom.1-N-terminal) (Homo sapiens, UniProt Q15349).
T5 construct: gene RPS6KA2; Kin.Dom.1-N-terminal

The next test deals with T6, TRKA (Homo sapiens, UniProt P04629).
T6 construct: gene NTRK1

In another test the target is T7, SGK (Homo sapiens, UniProt O00141).
T7 construct: gene SGK1

For the next test, the target named is T8, ADCK4 (Homo sapiens, UniProt Q96D53).
T8 construct: gene COQ8B

Test [2] concerns the target T9, RSK1(Kin.Dom.1-N-terminal) (Homo sapiens, UniProt Q15418).
T9 construct: gene RPS6KA1; Kin.Dom.1-N-terminal

Remaining binding data for 1 compound are collected here from publication PMC8799717, “Pharmacological targeting PIKfyve and tubulin as an effective treatment strategy for double-hit lymphoma” (Cell Death Discovery, 2022).

Structures are written as SMILES.

T6 sequence (P04629 whole entry): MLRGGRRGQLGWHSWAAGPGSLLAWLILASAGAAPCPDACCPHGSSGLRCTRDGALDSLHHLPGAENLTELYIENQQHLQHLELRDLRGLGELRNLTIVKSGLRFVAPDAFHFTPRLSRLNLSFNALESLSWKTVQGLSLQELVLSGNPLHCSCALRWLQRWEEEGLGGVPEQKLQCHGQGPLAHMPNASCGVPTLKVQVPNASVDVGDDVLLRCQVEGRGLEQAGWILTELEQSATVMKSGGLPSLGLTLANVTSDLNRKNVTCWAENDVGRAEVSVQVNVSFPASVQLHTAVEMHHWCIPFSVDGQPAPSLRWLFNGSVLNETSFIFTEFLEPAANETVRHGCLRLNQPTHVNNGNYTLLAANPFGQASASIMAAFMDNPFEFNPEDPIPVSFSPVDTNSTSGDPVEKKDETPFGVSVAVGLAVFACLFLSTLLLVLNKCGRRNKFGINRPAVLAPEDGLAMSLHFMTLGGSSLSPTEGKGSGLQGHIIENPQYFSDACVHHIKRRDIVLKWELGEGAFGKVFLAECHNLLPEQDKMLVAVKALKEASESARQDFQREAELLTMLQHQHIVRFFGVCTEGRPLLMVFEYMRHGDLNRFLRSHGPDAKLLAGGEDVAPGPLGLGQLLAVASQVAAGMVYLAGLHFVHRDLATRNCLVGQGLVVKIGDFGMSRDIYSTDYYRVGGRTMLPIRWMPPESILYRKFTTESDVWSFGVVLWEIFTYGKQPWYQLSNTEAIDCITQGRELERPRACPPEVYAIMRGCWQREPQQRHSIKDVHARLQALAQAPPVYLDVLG
Chain of PRKG2 (Q13237 whole entry): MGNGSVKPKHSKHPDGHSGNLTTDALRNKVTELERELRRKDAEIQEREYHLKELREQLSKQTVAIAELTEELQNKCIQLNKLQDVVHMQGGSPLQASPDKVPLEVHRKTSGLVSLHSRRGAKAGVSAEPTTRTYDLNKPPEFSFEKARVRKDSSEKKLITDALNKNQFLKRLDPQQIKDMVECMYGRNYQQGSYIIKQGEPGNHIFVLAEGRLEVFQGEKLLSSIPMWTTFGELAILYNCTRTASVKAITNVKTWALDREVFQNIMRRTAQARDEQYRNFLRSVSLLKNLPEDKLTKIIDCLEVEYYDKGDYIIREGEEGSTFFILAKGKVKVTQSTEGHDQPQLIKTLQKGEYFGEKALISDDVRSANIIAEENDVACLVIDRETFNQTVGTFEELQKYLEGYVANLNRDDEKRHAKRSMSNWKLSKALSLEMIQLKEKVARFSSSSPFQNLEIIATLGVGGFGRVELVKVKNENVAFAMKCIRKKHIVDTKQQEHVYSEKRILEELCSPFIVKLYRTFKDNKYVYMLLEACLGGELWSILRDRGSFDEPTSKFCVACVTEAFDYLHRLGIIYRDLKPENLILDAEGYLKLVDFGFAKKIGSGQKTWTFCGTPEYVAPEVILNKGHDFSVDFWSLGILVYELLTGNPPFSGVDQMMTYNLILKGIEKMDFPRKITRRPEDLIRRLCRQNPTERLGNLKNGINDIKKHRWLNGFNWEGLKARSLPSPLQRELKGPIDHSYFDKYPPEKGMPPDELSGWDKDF
Chain of ALK (Q9UM73 whole entry): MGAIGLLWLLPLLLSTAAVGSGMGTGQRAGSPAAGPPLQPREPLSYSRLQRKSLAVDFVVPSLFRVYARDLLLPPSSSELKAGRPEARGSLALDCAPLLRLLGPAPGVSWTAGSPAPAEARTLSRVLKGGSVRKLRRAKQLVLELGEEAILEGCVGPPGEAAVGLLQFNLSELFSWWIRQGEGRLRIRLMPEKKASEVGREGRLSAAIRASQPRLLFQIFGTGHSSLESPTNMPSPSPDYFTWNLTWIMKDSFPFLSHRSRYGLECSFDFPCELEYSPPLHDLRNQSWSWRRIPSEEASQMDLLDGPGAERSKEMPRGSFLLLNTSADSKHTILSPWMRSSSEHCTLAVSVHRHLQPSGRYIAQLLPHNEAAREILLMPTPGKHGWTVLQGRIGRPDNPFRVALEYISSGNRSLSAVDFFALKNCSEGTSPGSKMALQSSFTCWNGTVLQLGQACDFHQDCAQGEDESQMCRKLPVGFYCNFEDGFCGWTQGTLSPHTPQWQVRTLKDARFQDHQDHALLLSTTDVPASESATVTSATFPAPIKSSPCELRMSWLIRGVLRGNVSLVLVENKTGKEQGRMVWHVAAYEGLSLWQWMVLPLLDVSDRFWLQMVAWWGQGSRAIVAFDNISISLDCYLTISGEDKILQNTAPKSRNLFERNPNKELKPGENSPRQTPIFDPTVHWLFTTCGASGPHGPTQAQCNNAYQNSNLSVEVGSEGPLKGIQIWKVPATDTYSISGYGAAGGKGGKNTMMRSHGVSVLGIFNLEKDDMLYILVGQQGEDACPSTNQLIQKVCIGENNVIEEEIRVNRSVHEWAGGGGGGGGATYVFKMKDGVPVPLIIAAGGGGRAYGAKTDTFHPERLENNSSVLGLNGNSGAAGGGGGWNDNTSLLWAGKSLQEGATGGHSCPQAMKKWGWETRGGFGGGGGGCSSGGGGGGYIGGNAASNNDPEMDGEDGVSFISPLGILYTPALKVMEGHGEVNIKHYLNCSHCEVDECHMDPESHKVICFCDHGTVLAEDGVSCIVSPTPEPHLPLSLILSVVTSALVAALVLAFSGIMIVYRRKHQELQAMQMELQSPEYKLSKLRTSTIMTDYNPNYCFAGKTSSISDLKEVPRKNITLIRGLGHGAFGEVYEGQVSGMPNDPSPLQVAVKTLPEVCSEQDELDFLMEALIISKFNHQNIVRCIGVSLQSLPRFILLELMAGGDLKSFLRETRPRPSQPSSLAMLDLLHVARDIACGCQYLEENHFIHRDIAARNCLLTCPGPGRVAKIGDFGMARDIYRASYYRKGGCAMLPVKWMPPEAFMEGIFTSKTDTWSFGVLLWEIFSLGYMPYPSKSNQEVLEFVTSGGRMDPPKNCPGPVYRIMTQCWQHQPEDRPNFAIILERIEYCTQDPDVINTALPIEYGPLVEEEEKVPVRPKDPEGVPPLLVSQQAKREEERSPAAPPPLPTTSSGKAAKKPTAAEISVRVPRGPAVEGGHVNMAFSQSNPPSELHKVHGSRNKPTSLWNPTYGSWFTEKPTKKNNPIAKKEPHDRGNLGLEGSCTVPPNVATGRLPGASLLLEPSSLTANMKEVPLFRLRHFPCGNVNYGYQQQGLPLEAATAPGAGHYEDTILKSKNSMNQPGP
T4 sequence (Q16620 whole entry): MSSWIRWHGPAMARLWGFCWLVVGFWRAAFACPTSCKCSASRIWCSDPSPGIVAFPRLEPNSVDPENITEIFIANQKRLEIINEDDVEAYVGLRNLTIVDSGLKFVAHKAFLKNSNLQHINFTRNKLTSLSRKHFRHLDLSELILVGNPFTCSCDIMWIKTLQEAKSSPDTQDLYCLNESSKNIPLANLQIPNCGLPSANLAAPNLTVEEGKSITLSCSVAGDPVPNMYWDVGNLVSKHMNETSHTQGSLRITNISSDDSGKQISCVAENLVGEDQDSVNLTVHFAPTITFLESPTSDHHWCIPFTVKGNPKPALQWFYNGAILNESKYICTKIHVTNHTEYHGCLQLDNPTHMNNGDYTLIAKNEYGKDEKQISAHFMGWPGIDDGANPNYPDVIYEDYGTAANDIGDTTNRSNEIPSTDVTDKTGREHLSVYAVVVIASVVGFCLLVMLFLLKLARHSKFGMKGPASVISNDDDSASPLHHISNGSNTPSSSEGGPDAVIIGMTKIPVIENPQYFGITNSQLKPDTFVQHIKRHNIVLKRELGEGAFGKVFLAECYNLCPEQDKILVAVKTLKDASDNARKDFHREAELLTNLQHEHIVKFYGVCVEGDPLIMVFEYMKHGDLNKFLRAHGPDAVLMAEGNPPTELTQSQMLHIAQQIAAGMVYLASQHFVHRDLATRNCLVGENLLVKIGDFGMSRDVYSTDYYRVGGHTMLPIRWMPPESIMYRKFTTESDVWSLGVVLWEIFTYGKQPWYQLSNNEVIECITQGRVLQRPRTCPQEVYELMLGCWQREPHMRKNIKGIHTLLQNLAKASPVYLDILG
T3 sequence (P78356 whole entry): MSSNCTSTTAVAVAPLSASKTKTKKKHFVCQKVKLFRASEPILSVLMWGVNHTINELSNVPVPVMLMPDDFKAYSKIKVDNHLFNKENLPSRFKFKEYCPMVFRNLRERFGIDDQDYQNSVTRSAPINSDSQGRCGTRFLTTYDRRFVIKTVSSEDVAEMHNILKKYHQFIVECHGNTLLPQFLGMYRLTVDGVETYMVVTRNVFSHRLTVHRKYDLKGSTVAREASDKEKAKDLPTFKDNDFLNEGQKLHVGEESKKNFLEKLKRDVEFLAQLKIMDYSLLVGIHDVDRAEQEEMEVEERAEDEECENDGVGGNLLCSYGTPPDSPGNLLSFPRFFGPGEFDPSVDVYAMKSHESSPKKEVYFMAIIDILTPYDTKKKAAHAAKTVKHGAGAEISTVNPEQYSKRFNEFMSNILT
T1 sequence (Q86UX6 whole entry): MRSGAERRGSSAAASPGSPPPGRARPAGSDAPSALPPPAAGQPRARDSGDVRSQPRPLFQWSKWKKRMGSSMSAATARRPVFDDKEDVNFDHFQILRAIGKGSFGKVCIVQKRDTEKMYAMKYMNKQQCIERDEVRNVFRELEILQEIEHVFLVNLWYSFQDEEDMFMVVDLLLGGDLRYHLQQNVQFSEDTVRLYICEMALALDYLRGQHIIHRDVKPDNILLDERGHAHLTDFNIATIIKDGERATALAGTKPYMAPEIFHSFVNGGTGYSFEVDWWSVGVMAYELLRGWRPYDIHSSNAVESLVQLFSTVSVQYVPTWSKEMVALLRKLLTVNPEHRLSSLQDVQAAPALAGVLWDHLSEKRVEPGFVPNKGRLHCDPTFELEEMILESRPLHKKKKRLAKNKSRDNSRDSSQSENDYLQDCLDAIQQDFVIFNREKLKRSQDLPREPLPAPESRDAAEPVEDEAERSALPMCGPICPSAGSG

As for `Cc1ccc(NC(=O)c2cccc(C(F)(F)F)c2)cc1Nc1cc(-c2cccnc2)nc2[nH]ccc12` [HZX-02-059], the remaining binding at 1 µM is 81% at YANK3; 100% at AURKB; 97% at MLK2; 91% on TNK1; 86% at NEK4; 100% at CAMK2D. Moreover, the remaining binding at 1 µM at PIP5K2B was determined as 76%; on WNK4 it was 100%; at ALK, 100%; on DAPK3, 96%; at PRKG2, 89%; at TRKB it was 100%. In addition, the remaining binding at 1 µM in test [1] came out at 98%; at FLT3, 91%; on TRKA, 100%; on EPHB4 it was 30%; at EPHA5, 17%; at LRRK2, 100%. For the same compound, the remaining binding at 1 µM worked out at 100% at SGK; 91% on ADCK4; 98% on TAOK2; 86% on FGFR3; 92% at PIM1; 72% in test [2].
